These results are taken from patent US10570180B2, “Anti-bacterial agents and their use in therapy” (priority 2015, dated 2020).

≈ marks a conversion by molar mass, not a printed value. Where two headings read alike, the source gives them in different places. Ends that are not written are not given here.

Test [1] deals with A. baumanii. The format is cell-based. Here is the method:
(§1) ATX-101 was dissolved in Mueller-Hinton broth to 1.25 times of the desired assay concentration. Antibiotics were dissolved in Mueller-Hinton broth and Mueller-Hinton broth with ATX-101 at a concentration of 1.25 times the highest desired assay concentrations. Antibiotics were pharmaceutical grade purchased from Sigma-Aldrich.
(§2) Two-fold serial dilutions of antibiotics were made in Mueller-Hinton with different concentrations of ATX-101, and the solutions were placed in four parallel wells is Nunc 384-well micro plates (30 μl per well in Nunc 242757 microplates). A group of 8 wells with no addition of antibiotics for each ATX-101 concentration was included on each micro plate as a growth reference.
(§3) At the day of analysis, overnight TSB cultures inoculated from freeze stocks (6 ml in 50 ml tube tilted to 45-degrees angle, 200 rpm, 2.5 cm amplitude, 37° C.) were diluted in TSB until the OD800 was 0.10, and further diluted 1:40 in Mueller-Hinton broth. Each well in the 384-well assay plates was inoculated with 7.5 μl of the diluted culture, giving the same dilution of the culture in the assay cultures. The microplates were placed in plastic bags and incubated without shaking at 37° C. The optical density at 600 nm in the microwells was measured after approximately 19 hours of incubation, and the relative growth yield was calculated based on the growth in the reference groups. The MIC value was set to the highest concentration giving less than 30% growth in all 4 parallel wells within the sample groups. The microplates were further incubated for 6 hours, and optical density in the cultures was measured once more for confirmation of the estimated MIC-values.
(§4) The MICS for various APIM peptides were determined for various bacteria, as described above.

The subject of test [2] is E. faecium TO-12. The format is cell-based. Here is the method: as §1, §2, §3, §4
Test [3] concerns Staphylococcus aureus NCTC 6571. The format is cell-based. The conditions noted are these: for MIC: NCTC 6571. As for the experimental part: as §1, §2, §3, §4
For test [4], the system named is Staphylococcus aureus MRSA 1040s. Nature of the test: microbe, parasite or virus in culture. The format is cell-based. As for the experimental part: as §1, §2, §3
(§5) The APIM peptide was dissolved in Mueller-Hinton broth to 1.25 times of the desired assay concentration. Antibiotics were dissolved in Mueller-Hinton broth and Mueller-Hinton broth with APIM at a concentration of 1.25 times the highest desired assay concentrations. Antibiotics were pharmaceutical grade purchased from Sigma-Aldrich.
(§6) Two-fold serial dilutions of antibiotics were made in Mueller-Hinton with different concentrations of APIM, and the solutions were placed in four parallel wells in Nunc 384-well micro plates (30 μl per well in Nunc 242757 microplates). A group of 8 wells with no addition of antibiotics for each APIM concentration was included on each micro plate as growth reference.
as §3, with “inoculated” for “inoculated from”, “OD600” for “OD800”, “culture.” for “culture, giving the same dilution of the culture in the assay cultures.”, “yield in each well” for “yield”
In view of the anti-bacterial effect of ATX-101 on strains of MRSA, the MIC for a variety of APIM variants was determined using Staphylococcus aureus MRSA 1040s. […] A cell penetrating peptide (SEQ ID NO: 337) present in all of the APIM peptides, was used as a negative control.
Next, the effect of APIM peptides on the MIC of antibiotics was determined using Staphylococcus aureus MRSA 1040s.
as §4

Test [5] has as its system E. faecium CCUG 37832 (TO-3). The format is cell-based, Enterococcus faecium. As for the experimental part: as §1, §2, §3
Accordingly, concentrations of 8 μg/ml and 16 μg/ml of ATX-101 were combined with various antibiotics selected from; 2,4-Diamin, S. methizol, S. methoxa, S. dimetho, Surfaceta, Trimeth, Flumeq, Levoflox, Pruliflox, Metronid and Nitrofur.
as §4

The subject of test [6] is gram negative bacteria (Pseudomonas aeruginosa ATCC 15692, Acinetobacter baumenni ATCC 19606, Escherichia coli ATCC 25922, Pseudomonas aeruginosa TO-5A). The format is cell-based. Here is the method: (§7) The minimum inhibitory concentration (MIC) of ATX-101 (SEQ ID NO: 1289) was determined for various gram negative and gram positive bacteria. The bacteria, Pseudomonas aeruginosa ATCC 15692, Acinetobacter baumenni ATCC 19600, Escherichia coli ATCC 25922, Pseudomonas aeruginosa TO-5A (clinical isolate), Enterococous faecium CCUG 37832, Enterococcus faecium CTC 492, Micrococcus luteus ATCC 9341 and Escherichie coli NCIMB 12210 were grown in the presence of various concentrations of ATX-101 and/or antibiotic.
as §1, §2, §3

Test [7] relates to gram positive bacteria (Enterococcus faecium CCUG 37832, Enterococcus faecium CTC 492, Micrococcus luteus ATCC 9341). The format is cell-based. Here is the method:
as §7, §1, §2, §3

Test [8] has as its system E. faecium CTC 492. The experiment in a line: MIC assay of antibiotics with ATX-101. The format is cell-based, Enterococcus faecium. As for the experimental part:
as §7, §1, §2, §3, §5, §6
as §3, with “inoculated” for “inoculated from”, “OD600” for “OD800”, “culture.” for “culture, giving the same dilution of the culture in the assay cultures.”, “yield in each well” for “yield”

Test [9] concerns E. coli NCIMB 12210. The experiment in a line: MIC assay of antibiotics with ATX-101. The conditions noted are these: FIG. 4. The format is cell-based, Escherichia coli. Here is the method: as §7, §1, §2, §3, §5, §6
as §3, with “inoculated” for “inoculated from”, “OD600” for “OD800”, “culture.” for “culture, giving the same dilution of the culture in the assay cultures.”, “yield in each well” for “yield”

In test [10] the test system is P. aeruginosa. The format is cell-based. Here is the method: as §1, §2, §3, §4
The subject of test [11] is Staphylococcus aureus MRSA 1096. The format is cell-based. As for the experimental part:
as §1, §2
At the day of analysis, overnight TSB cultures inoculated from freeze stocks (6 ml in 50 ml tube tilted to 45-degrees angle, 200 rpm, 2.5 cm amplitude, 37° C.) were diluted in TSB until the OD800 was 0.10, and further diluted 1:40 in Mueller-Hinton broth. […] The optical density at 600 nm in the microwells was measured after approximately 19 hours of incubation, and the relative growth yield was calculated based on the growth in the reference groups. […] The microplates were further incubated for 6 hours, and optical density in the cultures was measured once more for confirmation of the estimated MIC-values.

The subject of test [12] is MRSA 1040 (u50) biofilm. Nature of the test: MRSA biofilm under flow (IBIDI flow-system). The format is cell-based, Staphylococcus aureus. As for the experimental part:
The IBIDI flow-system coupled with EVOS Auto Imaging system was optimized and used for testing the effect of ATX-101 on MRSA biofilm under flow. MRSA 1040 (u50) was used as model organism; it normally produces a dense biofilm in the growth channel during 36 hours of flow. The effect of 3 different concentrations of ATX-101 was tested (7 μg/ml, 3.5 μg/ml and 0.8 μg/ml). The flow system was programmed with share stress similar to those found in capillary networks (3.49 dyne/cm^2), 2% Luria Bertani (LB) was used for dilution and flow medium.

[13] abbreviates: concentration of APIM peptide 15 μg/ml, MRSA 1040s.
Setting [14] is: starting concentration of ATX-101 150 μg/ml.

Consider `CC[C@H](C)[C@H](NC(=O)[C@H](CCCCN)NC(=O)[C@H](CCCNC(=N)N)NC(=O)[C@H](CCCCN)NC(=O)[C@H](CCCCN)NC(=O)[C@H](CCCCN)NC(=O)[C@H](Cc1c[nH]c2ccccc12)NC(=O)[C@@H]1CCCN1C(=O)[C@@H](NC(=O)[C@H](CC(C)C)NC(=O)[C@H](Cc1c[nH]c2ccccc12)NC(=O)[C@H](CCCNC(=N)N)NC(=O)[C@H](CC(=O)O)NC(=O)[C@@H](N)CCSC)C(C)C)C(=O)N[C@@H](CCCNC(=N)N)C(=O)N[C@@H](CCCNC(=N)N)C(=O)N[C@@H](CCCNC(=N)N)C(=O)N[C@@H](CCCNC(=N)N)C(=O)N[C@@H](CCCNC(=N)N)C(=O)N[C@@H](CCCNC(=N)N)C(=O)N[C@@H](CCCNC(=N)N)C(=O)N[C@@H](CCCNC(=N)N)C(=O)N[C@@H](CCCNC(=N)N)C(=O)N[C@@H](CCCNC(=N)N)C(=O)N[C@@H](CCCNC(=N)N)C(=O)O` [SEQ ID NO: 1303], for which the MIC in test [1] was 25.3 µM (≈ 91.1 µg/mL); in [2], 25.3 µM (≈ 91.1 µg/mL); in test [3], 37.9 µM (≈ 137 µg/mL); in test [5] (CCUG 37832), 7.5 µM. Further, in test [4] (setting [13]), the “MIC of Erythromycin (Relative values)” value turned out to be 100.

As for MDRWLVKWKKKRKIRRRRRRRRRRR [ATX-101], the MIC in test [6] is 5 to 10 µg/mL; in test [7], “about 1 μg/ml”; in test [2], 16.8 µM; in test [10] it was 37.9 µM; in [3], 37.9 µM; in test [4] (1040s), 7.5 µM. Moreover, the MIC in [4] (Table 5, peptide alone, MRSA 1040s) is 32 µg/mL; in test [4] (Table 6, alone, MRSA 1040s), 16 µg/mL; in test [5] (ATX-101 alone, text b504) it was 7.5 µg/mL; in test [5] (Table 9, E. faecium TO-3), 7.5 µM. For the same compound, the “growth inhibited by ATX-101 from (concentration)” value was “about 1 μM” in [6] (FIG. 1, gram negative bacteria) and “about 1 μM” in test [7] (FIG. 2, gram positive bacteria). Moreover, in test [8] (6.5 μg/ml or 13 μg/ml ATX-101, about 0.5-2 μg/ml novobiocin), the “effect on inhibition of bacterial growth by novobiocin” value is “enhances the inhibition of bacterial growth”. Also, the “growth at higher concentration of ATX-101” value in test [8] (20 μg/ml ATX-101, with or without ampicillin or novobiocin) is given as “no growth was observed”. Also, in test [9], the “reduction of the MIC for novobiocin” value came out at 16 fold. Further, the “MIC of ATX-101” value in [3] (Staphylococcus aureus NCTC 6571) is 150 µg/mL; in test [4] (Table 4, MRSA 1040s), 37.5 µg/mL; in [11] (MRSA 1096), 9.375 µg/mL. Further, the Factor of inhibition in [3] (setting [14]) amounted to 1; in test [4] (setting [14]), 0.25; in test [11] (setting [14]), 0.0625. Further, the “MIC of Erythromycin (Relative values)” value came to 1000 in test [4] (concentration of APIM peptide 7.5 μg/ml, MRSA 1040s) and 125 in test [4] (setting [13]). Also, the biofilm formation entry is reported as “biofilm formation is inhibited” in test [12] (0.8 μg/ml ATX-101, 36 hours, FIG. 15) and “biofilm formation is inhibited” in test [12] (7 μg/ml ATX-101, 36 hours, FIG. 14). Also, in test [12] (7 μg/ml, 3.5 μg/ml and 0.8 μg/ml), the “effect on MRSA biofilm under flow” value was “Good effect”.
